According to paper PMC7277860, “Viridistratins A−C, Antimicrobial and Cytotoxic Benzo[j]fluoranthenes from Stromata of Annulohypoxylon viridistratum (Hypoxylaceae, Ascomycota)” (Biomolecules, 2020):
Like-named read-outs stand apart in the source and are kept apart here.

What was measured:
[1] = Cytotoxicity assay (MTT); type: cell-based; details: for IC50: 5 days
Procedure: (§1) Compounds 1−5 were dissolved as described in the previous section. The cytotoxicity assay was initially performed against the cell lines L929 (mouse fibroblasts), as well as KB 3.1 (human papillomavirus-related endocervical adenocarcinoma), as described previously. A detailed protocol, as well as sources of the cell lines, is given in the Supporting Information.
(§2) After incubating the cell lines with a serial dilution of the test compounds (final range: 37 to 0.6 × 10^−3 µg/mL) for five days, the cells were dyed using 3-(4,5-dimethyl-2-thiazolyl)-2,5-diphenyl-2H-tetrazolium bromide (MTT), which is only converted to its purple formazan derivative by living cells. Then, the intensity of the purple derivative in relation to cells without additive (set to 100% viability) for each concentration of a test compound was quantified. For this, the absorption at 595 nm was measured using a microplate reader to calculate the percentage of cell viability. From this, the half-maximum inhibitory concentration (IC50, in µM) was calculated.
(§3) Protocol: Cytotoxicity Assay
(§4) The ass ay w as co nducted i n 9 6-well flat-bottom mi crotiter plates using the parameters summarised i n Tabl e S 2 and as described in [S2].
(§5) Cell lines L929 and KB 3.1 were incubated at 37 °C under 10 % CO2 in Gibco™ DMEM medium (Thermo Fisher Scientific, Waltham, MA, USA) supplemented with 10 % FBS. A microtiter plate was filled with 120 µL of this suspension (50,000/mL) in each well.
(§6) Seperately, another microtiter plate was filled with 100 µL of growth medium in each well. Then, 50 µL of the test compound sol utions (1 mg/mL) were given to wells of the first column in two replicates (one compound per row). C ell s wi thout addi ti ves, Me O H, and MeOH: DMSO 9+1 were used as negative controls. Starting from the first column, 50 µL of the solutions were gradually transferred to the ne xt col umn, the conte nts thoroughl y mi xed, and 50 µ L transferred to the following column. This created a serial dilution of the test compounds r anging from 333 µg/mL to 1.9 ×10−3 µg/mL. The remai ni ng 50 µL after column twelve were discarded. From this microtiter plate, 60 µL of the sol utions from 111 µg/ mL to 1.9×10−3 µg/mL were given to the first plate containing 120 µL of the cel l suspens i ons (i.e. the hi ghest concentrati on 333 µg/mL was not used). T his resulted i n fi nal compound concent rati ons rangi ng from […]
(§7) After 5 days of incubation under the aforeme ntioned i ncubati on condi ti ons, the half maximum inhibitory concentrati ons (IC 50) were determined using a colorimetric tetrazolium dye MTT assay [S3].
(§8) For this, 20 µL of a 5 mg/mL solution of 3-( 4 ,5 -dimethyl-2-thi azo l yl)-2 ,5 -di phenyl -2H-tetrazolium bromide (MTT) w ere added to each well and incubated for two hours at 37 °C. Then, the microtiter plate was centrifuged (3,000 r p m, 5 mi n) and the supernat ant remo ved by ho l di ng the pl ate upsi de-do wn and gentle shaking. Afterwards, the wells were washed using 100 µL of phosph ate buffered saline (PBS).
(§9) The plate was again centrifuged and the supernatant removed as described before. Then, 100 µL of an isopropanol:HCl solution (1L i sopropanol+4 mL HCl 37 % w/v) were added to the wells. After i ncubati ng fo r 10 mi n at ambi ent te mperature, the a bso r pti o n of the well s at 595 nm was measured wi th an I nfi ni te ® 200 Pro microplate reader (TECAN, Männedorf, Schweiz).
(§10) The absorption values of the cells without additives were averaged and set to 100 % cell viability.
(§11) Then, t he me ans of absorption of the two compound replicates were set in relation to the blank media.
(§12) These percentage values were plotted a gainst the concentration range (37 µg/mL to 0.6×10 −3 µg/mL).
(§13) The IC50 val ue w as read from the plot ( i n µg/mL) and the uni ts conversed to µM.
(§14) If effects were observed wi th cell lines L929 and KB 3.1 (IC50 < 50 µM), the other cell lines were tested using the same protocol.
(§15) Table S2: Cytotoxicity assay experiment parameters cell line type No. growth medium […]

[2] = tested on: L929 (mouse fibroblasts); test: Cytotoxicity assay (MTT); type: cell-based; details: 5 days
Procedure: as §1, §2, §3, §4, §5, §6, §7, §8, §9, §10, §11, §12, §13, §14, §15

[3] = human, KB 3.1 human endocervical adenocarcinoma cells
[4] = mouse, L929 mouse fibroblast cells, L929 mouse fibroblasts

| SMILES | IC50 at 5 days [1, 3] [µM] | IC50 at 5 days [1, 4] [µM] | IC50 ([2]; Mus musculus, L929, 120 h, value in µg/mL, read-out: half-maximum inhibitory concentration (IC50)) [µg/mL] | IC50 ([2]; read-out: Cytotoxicity (IC50)) [µM] | IC50 ([1]; KB 3.1 human endocervical adenocarcinoma) [µM] | IC50 ([1]; L929 mouse fibroblasts) [µM] | IC50 ([2]; 120 h, value in µg/mL, read-out: half-maximum inhibitory concentration (IC50)) [µg/mL] |
| --- | --- | --- | --- | --- | --- | --- | --- |
| Oc1cccc2c3c(ccc12)-c1ccc(O)c2c(O)ccc-3c12 [Compound 1, viridistratin A] | 28.3 | 12.7 | 8.5 |  |  |  |  |
| COc1cccc2c3c(ccc12)-c1ccc(O)c2c(O)ccc-3c12 [Compound 2, viridistratin B] | 17.2 | 17.2 |  |  |  |  |  |
| COc1cccc2c3c(ccc12)-c1ccc(O)c2c(OC)ccc-3c12 [Compound 3, viridistratin C] | > 50 | > 50 |  | 61 |  |  |  |
| O=C1C[C@H]2C(=C3CCC(=O)c4c(O)ccc2c43)c2cccc(O)c21 [Compound 4, truncatone A] |  |  |  |  | 44 | 10.4 | 3.3 |
| O=C1CCC(=O)c2c1c(O)cc1c2-c2ccc(O)c3c(O)ccc-1c23 [Compound 5, truncatone C] | 30.1 | 16.3 |  |  |  |  |  |
